US20040176329A1, “Drugs for promoting the proliferation, differentiation and/or survival of glial cells containing cyclic phosphatidic acid” (priority 2001, published 2004)

Key:
NIH-3T3 = experiment: Formation of stress fiber in NIH-3T3 by addition of lysophospholipids; format: cell-based, mouse; details: 10 μM, 37° C., 30 minutes, subconfluent serum starvation state; control: no formation
Method: NIH-3T3, a mouse-derived fibroblast cell, was incubated in a Dulbecoo's Modified Eagle's Medium (DMEM) containing 10% fetal bovine serum (FBS; made by Moregate), and was used in the Experiment. 2.5 ×10^4 cells of the NIH-3T3 were inoculated in a petri dish (10 cm in diameter) paved with cover glasses of 22 mm in diameter, and the medium was replacing with a FBS-free medium after 24 hours, and the cells were incubated in a serum starvation state for 48 hours. 10 μM of the lysophospholipid was added, and the cells were incubated at 37° C. for 30 minutes for stimulation. Then, the cells were fixed in the Dalbecco's PBS containing 3.7% of paraformaldehyde and 0.1% of Triton X-100 at room temperature for 10 minutes. Thereafter, the cells were stained with 5 units/ml of rhodamine phalloidin (made by Funakoshi) at 37° C. for 1 hour. The cover glasses were washed with PBS thrice, and observation was carried out by a cofocus laser microscope TCS NT Control laser Scanning Microscope (made by Leica).
The product obtained by the A.sp.362-derived PLD reaction was studied with respect to its biochemical activity in order to confirm further that it was a compound which is identical to cPA. Namely, the activity of forming actin stress fiber in a fibroblast cell, one of the physiological activities of cPA, was studied. To NIH-3T3, i.e. a fibroblast cell line derived from mouse, in the subconfluent state in the serum starvation state, each 10 μM of LPA, a chemically synthesized PHYLPA, or cPA, i.e. the PLD reaction product was added at 37° C. for 30 minutes, and then actin stress fiber was stained with Rhodamine phalloidin, and observation was carried out.

[1] = test system: primary cultured cerebral cortex cells (neurons); experiment: Oligodendrocyte primary culturing system with cPA or LPA added: cell appearance at early culturing stage; format: cell-based, rat; details: 5 μM per dish, FIG. 7; for aggregation of cells and bundling of neurons: early culturing stage (P-6th day)
Method: (§1) A mother rat of 18 days of pregnancy (E18Wistar Rat) was put into an anesthesia bottle containing an adequate amount of diethyl ether, and was anesthetized. The anesthetization was carried out for 3-5 minutes and stopped just before death. The mother rat was taken out of the anesthesia bottle, put on a suitable vat to lie on its back, and disinfected at the hypogastric area with ethanol. The rat was tom along a cut line about 3-4 cm upward from the tail joint by a scissors, and opened sideward with the scissors to separate the inner membrane from the skin. The skin was tom to expose the inner membrane, which was disinfected again with ethanol and tom to take out the uterus. The Y-shaped section of the uterus was cut while lifting the uterus, and the uterus was taken out. The taken out uterus was dipped in a cooled MEM^− in order to decrease the damage of the fetus brain.
The cerebral cortex was picked by a round pincette into a 35 mm dish to which 2 ml of dispase I (3 U/ml) was added, and was placed in a CO2 5% and humidity 95% incubator at 37° C. for 5 minutes. Then, Dnase (1 ml) was added thereto, and the dish was put in the incubator for 10 minutes again. The resultant solution was sufficiently pipetted while being careful not to make bubbles by a Pasteur pipette having the top end rounded by burning, so that the cells might be free from any bundles. The upper inlet of 50 ml tube was covered with a 70 μm mesh, and the mesh was then wetted with an adequate amount of MEM^−. The cell suspension thus obtained was poured into the tube through the mesh, and about 2 ml of MEM^− was poured to wash the mesh. The mesh was removed, and the resultant was messed up to 30-40 ml with MEM^−. The thus obtained sample was centrifuged at 1,000 rpm for 5 minutes, and the supernatant was removed. […]
(§2) The dish is washed twice with about 5 ml of PBS(−). […] Then, the cell number is counted by a cell counter. The supernatant is discarded, 20-30 ml of MEM^+ (B.S at the third passage) is added, and the resultant is pipetted, and the cell number is counted by a cell counter. […]

O-2A precursor cells = experiment: Oligodendrocyte primary culturing system with cPA or LPA added: O-2A precursor cells; format: cell-based, rat; details: 5 μM per dish; for number of O-2A precursor cells versus control: 6th day from first passage (1P-6th day)
Method: as §1
(§3) The cerebral cortex was picked by a round pincette into a 35 mm dish to which 2 ml of dispase I (3 U/ml) was added, and was placed in a CO2 5% and humidity 95% incubator at 37° C. for 5 minutes. Then, Dnase (1 ml) was added thereto, and the dish was put in the incubator for 10 minutes again. The resultant solution was sufficiently pipetted while being careful not to make bubbles by a Pasteur pipette having the top end rounded by burning, so that the cells might be free from any bundles. The upper inlet of 50 ml tube was covered with a 70 μm mesh, and the mesh was then wetted with an adequate amount of MEM^−. The cell suspension thus obtained was poured into the tube through the mesh, and about 2 ml of MEM^− was poured to wash the mesh. The mesh was removed, and the resultant was messed up to 30-40 ml with MEM^−. The thus obtained sample was centrifuged at 1,000 rpm for 5 minutes, and the supernatant was removed. The sample was messed up again to 30-40 ml with MEM^−, pipetted and centrifuged again at 1,000 rpm. The supernatant was removed, and the sample was supplied with 30 ml of MEM^−, and sufficiently pipetted, and then the cell number was countered by a cell counter. The cell suspension was inoculated in the PLL-coated dishes to be 1.0×10^7 cells/dish. The liquid was adjusted with MEM^+ to be a final volume of 10 ml/dish, and the cells were cultured in an incubator.
After disposal of the culture medium, the dish is washed twice with about 3 ml of PBS(−), and 10 ml of the fresh culture medium is poured. The medium change after the 17th day is carried out using B.S (serum-free medium). […]
as §2

astrocytes = experiment: Oligodendrocyte primary culturing system with cPA or LPA added: astrocytes; format: cell-based, rat; details: 5 μM per dish; for astrocytes by GFAP staining: 2P-6th day, fluorescence microscope, FIG. 10; for state and cell density of astrocytes: 6th day from second passage (2P-6th day), serum-free medium, FIG. 9; for remaining astrocytes: 6th day from third passage (3P-6th day), FIG. 11
Method: as §1, §3
(§4) After disposal of the culture medium, the dish is washed twice with about 3 ml of PBS(−), and 10 ml of the fresh culture medium is poured. The medium change after the 17th day is carried out using B.S (serum-free medium). Only at the first medium change, 200 μl of bFGF is added per dish. It is because the O-2A precursor cell is grown.
(§5) The dish is washed twice with about 5 ml of PBS(−). At the first passage, the dish is left stand for 2-3 minutes after supplying PBS(−) at the second time. 2-3 ml of 0.05% trypsin is added, and the dish is left stand in a 37° C. incubator for 8 minutes. After observation of the cell condition with a microscope, while keeping the trypsin as it was, the dish is supplied with MEM^+ at the same amount as the trypsin, and the cells is pipetted to stop the action of trypsin. The resultant was centrifuged at 1,000 rpm for 5 minutes. After removing the supernatant, 20-30 ml of MEM^− is added, and the resultant is pipetted again, centrifuged at 1,000 rpm for 5 minutes. Then, the cell number is counted by a cell counter. The supernatant is discarded, 20-30 ml of MEM^+ (B.S at the third passage) is added, and the resultant is pipetted, and the cell number is counted by a cell counter. Depending on respective passage stages, the cells are inoculated in respective dishes at the following number, and are cultured while left standing in an incubator.
(§6) From the stage of primary culturing, cPA or LPA was added to be an amount of 5 μM per dish every passage and medium change. […]

oligodendrocytes = experiment: Oligodendrocyte primary culturing system with cPA or LPA added: oligodendrocytes; format: cell-based, rat; details: 5 μM per dish; for oligodendrocyte cell number and dendrites: further 10 days after 3P-OL, FIG. 13
Method: as §1, §3, §4, §5, §6

[2] = 3P-6th day, fluorescence microscope, FIG. 12

Molecule	formation of actin stress fiber (Rhodamine phalloidin staining) (NIH-3T3)	aggregation of cells and bundling of neurons [1]	cell density (O-2A precursor cells; 1P-6th day, FIG. 8)	number of O-2A precursor cells versus control (O-2A precursor cells; FIG. 8)	proliferation of O-2A precursor cells (conclusion) (O-2A precursor cells; early culturing stage)	astrocytes by GFAP staining (astrocytes)	state and cell density of astrocytes (astrocytes)	remaining astrocytes (astrocytes)	survival of astrocytes (conclusion) (astrocytes; all culturing stages)	survival of astrocytes (astrocytes; further 10 days after 3P-OL, FIG. 13)	MBP staining colour versus control (oligodendrocytes; [2])	oligodendrocyte cell number and dendrites (oligodendrocytes)	cell appearance versus control ([1]; 6th day from primary culturing (P-6th day))	differentiation of oligodendrocytes by 04 staining (oligodendrocytes; 2P-6th day, fluorescence microscope, FIG. 10)	state of dendrites of oligodendrocytes (oligodendrocytes; 3P-6th day, FIG. 11)	extent of MBP staining along the dendrite (oligodendrocytes; 3P-6th day, FIG. 12)
CCCCCC[C@@H]1C[C@@H]1CCCCCCCC(=O)OC[C@@H]1COP(=O)(O)O1 [PHYLPA]	formation of stress fibers was observed	–	–	–	–	–	–	–	–	–	–	–	–	–	–	–
CCCCCCCC/C=C\CCCCCCCC(=O)OCC1COP(=O)(O)O1 (stereo not shown) [cPA, 1-oleoyl cyclic phosphatidic acid]	formation of stress fibers was observed	causes cells to aggregate and neurons to be bundled	much higher than the others	increase in number more remarkably	promotes O-2A precursor cells to proliferate	exists in a dense tissue	remained vigorous, and remained high in cell density	the astrocytes which was deformed to the narrow ones still remain	promotes the survival of astrocytes through all their culturing stages	the astrocytes survived even at this stage	develops color stronger	many dendrites of oligodendrocytes around them which were not suffered from apoptosis	–	–	–	–
lysophosphatidic acid [LPA]	formation of stress fibers was observed	aggregate to form bundles of the neurons	–	increase in number more remarkably	–	the tissue of the astrocytes can be confirmed	lowered in cell density, though not so wrong as in the control	little astrocytes remains	–	–	develops color stronger	the cell number itself decreased and the dendrite fell ragged	no large difference in cell appearance	elongated dendrites to form fine mesh-shape and differentiations is proceeded	dendrites of the oligodendrocytes suffer from aoptosis and begin to be ragged	even the tip of the dendrite is stained
